Experimental findings from patent US12358918B2, “Aryl hydrocarbon receptor (AHR) activator compounds as cancer therapeutics” (THE BROAD INSTITUTE, INC., priority 2018, dated 2025) are described below.

The test system of series [1] is MDA-MB-468 and ZR51 breast cancer and JHH7 liver cancer cell lines.
For series [2], the system named is MDA-MB-231 breast cancer cell lines. Nature of the series: cytotoxicity, control cells vs cells overexpressing CYP1A1. The class given is cell-based. The text has this: The dependence of each compound's cytotoxic effects upon CYP1A1 was also examined, via screening of MDA-MB-231 breast cancer cell lines for cytotoxic response. The CYP1A1-dependence of the cytotoxic response of to each tested compound was specifically determined by comparing the cytotoxicity of each compound administered to control cells with that of the compound administered to corresponding cells that overexpressed CYP1A1. […]

`Nc1nc2cccc(C(F)(F)F)c2c2nc(-c3ccco3)nn12` [A2]: the “AHR-dependence of the cytotoxic response” value in series [1] was “dependence upon AHR”. For the same compound, in series [2], the “CYP1A1-dependence of the cytotoxic response” value (“CYP1A1-dependence” below) is listed as “CYP1A1-dependent cytotoxic”.
For `Cc1nc2ccccc2c2nc(-c3ccoc3)nn12` [Z1222312995], in that order: “dependence upon AHR” and “CYP1A1-dependent cytotoxic”.
Consider `O=Cc1c2[nH]c3ccccc3c2cc2[nH]c3ccccc3c12` [FICZ, reference compound], for which the “AHR-dependence of the cytotoxic response” value in series [1] is listed as “dependence upon AHR”. For the same compound, the “CYP1A1-dependence” value in series [2] is recorded as “CYP1A1-dependent cytotoxic”.
For `CC(C)c1ccc2nc(N)n3nc(-c4ccco4)nc3c2c1` [BRO-025, 2-(furan-2-yl)-9-isopropyl-[1,2,4]triazolo[1,5-c]quinazolin-5-amine], in that order: “dependence upon AHR” and “CYP1A1-dependent cytotoxic”.
The like results for `Nc1nc2cccc(Cl)c2c2nc(-c3ccco3)nn12` [BRO-027, 10-chloro-2-(furan-2-yl)-[1,2,4]triazolo[1,5-c]quinazolin-5-amine] were, in that order, “dependence upon AHR” and “CYP1A1-dependent cytotoxic”.
For `c1ccc(-c2n[nH]c3c2oc2ccccc23)cc1` [GTP 14564, reference compound], in that order: “dependence upon AHR” and “CYP1A1-dependent cytotoxic”.
For the compound `O=c1[nH]c2ccc(Cl)c(Cl)c2c2nc(-c3ccco3)nn12` [A1], the “AHR-dependence of the cytotoxic response” value in series [1] is “dependence upon AHR”. The “CYP1A1-dependence” value in series [2] is recorded as “CYP1A1-dependent cytotoxic”.
The like results for `Nc1nc2ccc(C(F)(F)F)cc2c2nc(-c3ccco3)nn12` [BRO-024, 2-(furan-2-yl)-9-(trifluoromethyl)-[1,2,4]triazolo[1,5-c]quinazolin-5-amine] were, in that order, “dependence upon AHR” and “CYP1A1-dependent cytotoxic”.
For `Nc1nc2ccc(F)cc2c2nc(-c3ccco3)nn12` [BRO-023, 9-fluoro-2-(furan-2-yl)-[1,2,4]triazolo[1,5-c]quinazolin-5-amine], in that order: “dependence upon AHR” and “CYP1A1-dependent cytotoxic”.
The like results for `Cc1nc2cccc(C(F)(F)F)c2c2nc(-c3ccco3)nn12` [B3] were, in that order, “dependence upon AHR” and “CYP1A1-dependent cytotoxic”.
As for `O=c1[nH]c2ccccc2c2nc(-c3ccco3)nn12` [2-(2-furyl)[1,2,4]triazolo[1,5-c]quinazolin-5(6H)-one], the “AHR-dependence of the cytotoxic response” value in series [1] was “dependence upon AHR”. Also, in series [2], the “CYP1A1-dependence” value is on record as “CYP1A1-dependent cytotoxic”.
In the case of `Nc1nc2cc(Cl)ccc2c2nc(-c3ccco3)nn12` [BRO-026, 8-chloro-2-(furan-2-yl)-[1,2,4]triazolo[1,5-c]quinazolin-5-amine], the “AHR-dependence of the cytotoxic response” value in series [1] is recorded as “dependence upon AHR”. Moreover, the “CYP1A1-dependence” value in series [2] is given as “CYP1A1-dependent cytotoxic”.
For `Cc1ccc(-c2nc3c4ccccc4nc(C)n3n2)o1` [B5], in that order: “dependence upon AHR” and “CYP1A1-dependent cytotoxic”.
For `Cc1nc2cnccc2c2nc(-c3ccco3)nn12` [B7], in that order: “dependence upon AHR” and “CYP1A1-dependent cytotoxic”.
On to `CSc1nc2ccccc2c2nc(-c3ccco3)nn12` [2-(2-furyl)-5-(methylsulfanyl)[1,2,4]triazolo[1,5-c]quinazoline], for which the “AHR-dependence of the cytotoxic response” value in series [1] was “dependence upon AHR”. In addition, the “CYP1A1-dependence” value in series [2] was “CYP1A1-dependent cytotoxic”.
For `Cc1nc2ccc(Cl)cc2c2nc(-c3ccco3)nn12` [B2], in that order: “dependence upon AHR” and “CYP1A1-dependent cytotoxic”.
With `COc1cccc2nc(N)n3nc(-c4ccco4)nc3c12` [A16], the “AHR-dependence of the cytotoxic response” value in series [1] is given as “dependence upon AHR”. Moreover, the “CYP1A1-dependence” value in series [2] is recorded as “CYP1A1-dependent cytotoxic”.
The like results for `COc1ccc2nc(N)n3nc(-c4ccco4)nc3c2c1` [A15] were, in that order, “dependence upon AHR” and “CYP1A1-dependent cytotoxic”.
The like results for `O=C1NC(=O)c2c1c1c3ccccc3[nH]c1c1[nH]c3ccccc3c21` [Arcyriaflavin A, reference compound] were, in that order, “dependence upon AHR” and “CYP1A1-dependent cytotoxic”.
For `Nc1nc2cccc(F)c2c2nc(-c3ccco3)nn12` [A17], in that order: “dependence upon AHR” and “CYP1A1-dependent cytotoxic”.
On to `Cn1cccc1-c1nc2c3cc(Cl)ccc3nc(N)n2n1` [BRO-018, 9-chloro-2-(1-methyl-1H-pyrrol-2-yl)-[1,2,4]triazolo[1,5-c]quinazolin-5-amine], for which, in series [1], the “AHR-dependence of the cytotoxic response” value is “dependence upon AHR”. Besides, the “CYP1A1-dependence” value in series [2] is recorded as “CYP1A1-dependent cytotoxic”.
The like results for `Sc1nc2ccccc2c2nc(-c3ccco3)nn12` [2-(2-furyl)[1,2,4]triazolo[1,5-c]quinazolin-5-yl hydrosulfide] were, in that order, “dependence upon AHR” and “CYP1A1-dependent cytotoxic”.
The like results for `Cc1nc2cccc(Cl)c2c2nc(-c3ccco3)nn12` [B1] were, in that order, “dependence upon AHR” and “CYP1A1-dependent cytotoxic”.
In the case of `Clc1cccc2ncn3nc(-c4ccco4)nc3c12` [10-chloro-2-(2-furyl)[1,2,4]triazolo[1,5-c]quinazoline], in series [1], the “AHR-dependence of the cytotoxic response” value is given as “dependence upon AHR”. In addition, in series [2], the “CYP1A1-dependence” value is reported as “CYP1A1-dependent cytotoxic”.
The like results for `COc1ccc(CCCn2ncc3c2nc(N)n2nc(-c4ccco4)nc32)cc1` [SCH 442416, reference compound] were, in that order, “dependence upon AHR” and “CYP1A1-dependent cytotoxic”.
The like results for `c1coc(-c2nc3c4ccccc4ncn3n2)c1` [2-(2-furyl)[1,2,4]triazolo[1,5-c]quinazoline] were, in that order, “dependence upon AHR” and “CYP1A1-dependent cytotoxic”.
The like results for `Nc1nc2ccc(Br)cc2c2nc(-c3ccco3)nn12` [A14] were, in that order, “dependence upon AHR” and “CYP1A1-dependent cytotoxic”.
